Laboratory results: patent US20090197942A1, “Method For Producing Polyphenol-Rich Composition” (KYUSAI CO., LTD., priority 2006, published 2009)

System: spontaneously hypertensive rats (SHR)
Test: Test for inhibiting hypertension in rats (systolic BP at the tail pulse), SHR
Type: in vivo
Conditions: for changes in blood pressure (inhibition of hypertension): male SHR, oral once a day for 8 weeks, quercetin 0.3-2.7 mg/day/kg and/or arginine 0.03-0.15 mg/day/kg, FIG. 2
Description: Quercetin was extracted by adding 100 g of washed onion skins to 10 liters of water heated to 80° C., and impurities were removed to obtain quercetin-containing solution. The amount of quercetin contained in the quercetin-containing solution was 0.1 mg/ml. The quercetin-containing solution was appropriately concentrated with an evaporator.
11 week old male spontaneously hypertensive rats (SHR) were divided into A to I groups (9 groups consisting of 5 rats per group) and 11 week old male normotensive Wistar Kyoto (WKY) rats were divided into J to L groups (3 groups consisting of 5 rats per group) so that averages of weight and blood pressure (BP) of the respective groups were nearly equal. They were pre-bred in each breeding cage at 22.0±1.0° C. temperature, 60±10% of humidity and 12 hour light-dark cycles for a week while taking feeds and water ad libitum.
After the pre-breeding period, they were bred with the same conditions for 8 weeks. The quercetin-containing solution obtained in the above-mentioned preparation method and commercially-available arginine powder (produced by Ajinomoto Co., Inc.) were blended together so that amounts of quercetin and arginine would be the respective amounts in Table 7, below. Each mixture was orally administered to the rats in each group once a day. The rats took feed and water ad libitum during the test.
The blood pressure (BP) of rats was measured once a week. After each rat was warmed and climatized itself in a warmer at 38° C. for a few minutes, a systolic BP at the tail pulse was measured with an automatic sphygmomanometer (BP-98A; Softron Co., Ltd.) In each rat, the BP was measured for three times per one measurement and an average of the three measured values was recorded.

| SMILES | changes in blood pressure (inhibition of hypertension) | inhibition of hypertension with purified quercetin instead of quercetin-containing solution (same test, purified quercetin used instead of the quercetin-containing solution) |
| --- | --- | --- |
| O=c1c(O)c(-c2ccc(O)c(O)c2)oc2cc(O)cc(O)c12 [quercetin] | hypertensions were inhibited |  |
| N=C(N)NCCC[C@H](N)C(=O)O [arginine] | hypertensions were inhibited |  |
| O=c1c(O)c(-c2ccc(O)c(O)c2)oc2cc(O)cc(O)c12 [purified quercetin, quercetin] |  | a similar result can be achieved |
